Measured values from US7652028B2, “Indenoisoquinolinone analogs and methods of use thereof” (Inotek Pharmaceuticals Corporation, priority 2005, dated 2010).

Target: T1, PARP (Homo sapiens, UniProt P09874)
T1 construct: endogenous in cells; host or cells: A549 human alveolar epithelial adenocarcinoma cells
Test: PARP activity in hydrogen peroxide-stimulated A549 cells, whole-cell based assay (3H-NAD+ incorporation)
Conditions: 15 min pretreatment (10 nM-300 nM), hydrogen peroxide-induced PARP activation, from dose-response curve
Protocol: Human alveolar epithelial cells (A549), an adenocarcinoma cell line with the alveolar type 2 phenotype were cultured in […] medium supplemented with 10% fetal bovine serum. Cells were grown to 80% confluence in 12-well plates and pretreated with various concentrations (10 nM-300 nM) of an Indenoisoquinolinone Analog for 15 minutes. Hydrogen peroxide, a prototypical oxidant that induces DNA single strand breakage, was used to induce PARP activation. Hydrogen peroxide was diluted in culture media and added to the cells in a bolus of 20 μl. After 20 minutes of incubation, the medium was aspirated and 0.5 mL of assay buffer (56 mM HEPES pH 7.5, 28 mM KCl, 28 mM NaCl, 2 mM MgCl2, 0.01% w/v digitonin and 0.5 μCi/ml 3H-NAD^+) was added to cells. Following incubation in the assay buffer (15 minutes at 37° C.), PARP activity was measured. Cells were scraped from the plate, transferred to a 1.5 mL eppendorf tube and then added 200 μl of ice cold 50% w/v TCA. […] The contents of the tubes were added to 6.5 mL ScintiSafe Plus scintillation liquid (Fisher Scientific) and radioactivity was determined using a liquid scintillation counter (Wallac, Gaithersburg, Md.). […] EC50 values were determined from a dose-response curve. IC50 values were determined using a commercially available in vitro PARP-1 inhibition assay kit (Trevigen, Gaithersburg, Md., USA).

T1 sequence (P09874 whole entry): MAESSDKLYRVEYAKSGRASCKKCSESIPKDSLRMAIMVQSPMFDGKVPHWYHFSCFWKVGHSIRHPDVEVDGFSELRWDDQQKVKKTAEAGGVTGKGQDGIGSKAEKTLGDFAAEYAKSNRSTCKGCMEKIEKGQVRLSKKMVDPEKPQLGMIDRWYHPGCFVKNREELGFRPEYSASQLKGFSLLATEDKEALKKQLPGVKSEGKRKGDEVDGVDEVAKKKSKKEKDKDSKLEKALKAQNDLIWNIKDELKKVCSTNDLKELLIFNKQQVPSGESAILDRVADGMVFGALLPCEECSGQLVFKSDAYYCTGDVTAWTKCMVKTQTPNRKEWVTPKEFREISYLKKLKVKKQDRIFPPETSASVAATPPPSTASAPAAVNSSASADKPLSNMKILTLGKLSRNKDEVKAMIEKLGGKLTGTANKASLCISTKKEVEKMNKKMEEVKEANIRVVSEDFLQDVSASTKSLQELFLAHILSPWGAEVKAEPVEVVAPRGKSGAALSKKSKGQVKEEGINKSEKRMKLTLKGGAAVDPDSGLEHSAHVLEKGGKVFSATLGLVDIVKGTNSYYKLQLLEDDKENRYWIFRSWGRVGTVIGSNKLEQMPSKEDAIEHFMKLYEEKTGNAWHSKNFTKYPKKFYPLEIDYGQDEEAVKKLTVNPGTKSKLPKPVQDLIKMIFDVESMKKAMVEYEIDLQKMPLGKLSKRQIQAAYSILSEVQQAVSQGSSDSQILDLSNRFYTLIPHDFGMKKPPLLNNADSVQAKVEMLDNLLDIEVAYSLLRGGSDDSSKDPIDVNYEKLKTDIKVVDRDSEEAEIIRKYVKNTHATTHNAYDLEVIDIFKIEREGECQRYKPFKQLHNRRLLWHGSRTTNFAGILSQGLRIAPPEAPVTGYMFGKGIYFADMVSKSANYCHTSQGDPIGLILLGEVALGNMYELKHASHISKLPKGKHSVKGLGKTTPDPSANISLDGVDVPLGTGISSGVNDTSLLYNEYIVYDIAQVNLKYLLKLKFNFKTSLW

EC50: 290 nM
SMILES: O=c1[nH]c2c(c3ccccc13)Cc1c(CO)cccc1-2 [(I)(25), 10-hydroxymethyl-5,6-dihydro-5-oxo-11-H-indeno[1,2-c]isoquinoline]
